Test results reported in patent US8501446B2 (Vertex Pharmaceuticals Incorporated, priority 2004, dated 2013).

What was measured:
Assay type in all cases: biochemical
[1] = biological target: T1, JAK3 (Homo sapiens, UniProt P52333); test: JAK3 inhibition assay (standard radioactive enzyme assay); conditions: average Ki if more than one value determined
T1 sequence (P52333 1-1124): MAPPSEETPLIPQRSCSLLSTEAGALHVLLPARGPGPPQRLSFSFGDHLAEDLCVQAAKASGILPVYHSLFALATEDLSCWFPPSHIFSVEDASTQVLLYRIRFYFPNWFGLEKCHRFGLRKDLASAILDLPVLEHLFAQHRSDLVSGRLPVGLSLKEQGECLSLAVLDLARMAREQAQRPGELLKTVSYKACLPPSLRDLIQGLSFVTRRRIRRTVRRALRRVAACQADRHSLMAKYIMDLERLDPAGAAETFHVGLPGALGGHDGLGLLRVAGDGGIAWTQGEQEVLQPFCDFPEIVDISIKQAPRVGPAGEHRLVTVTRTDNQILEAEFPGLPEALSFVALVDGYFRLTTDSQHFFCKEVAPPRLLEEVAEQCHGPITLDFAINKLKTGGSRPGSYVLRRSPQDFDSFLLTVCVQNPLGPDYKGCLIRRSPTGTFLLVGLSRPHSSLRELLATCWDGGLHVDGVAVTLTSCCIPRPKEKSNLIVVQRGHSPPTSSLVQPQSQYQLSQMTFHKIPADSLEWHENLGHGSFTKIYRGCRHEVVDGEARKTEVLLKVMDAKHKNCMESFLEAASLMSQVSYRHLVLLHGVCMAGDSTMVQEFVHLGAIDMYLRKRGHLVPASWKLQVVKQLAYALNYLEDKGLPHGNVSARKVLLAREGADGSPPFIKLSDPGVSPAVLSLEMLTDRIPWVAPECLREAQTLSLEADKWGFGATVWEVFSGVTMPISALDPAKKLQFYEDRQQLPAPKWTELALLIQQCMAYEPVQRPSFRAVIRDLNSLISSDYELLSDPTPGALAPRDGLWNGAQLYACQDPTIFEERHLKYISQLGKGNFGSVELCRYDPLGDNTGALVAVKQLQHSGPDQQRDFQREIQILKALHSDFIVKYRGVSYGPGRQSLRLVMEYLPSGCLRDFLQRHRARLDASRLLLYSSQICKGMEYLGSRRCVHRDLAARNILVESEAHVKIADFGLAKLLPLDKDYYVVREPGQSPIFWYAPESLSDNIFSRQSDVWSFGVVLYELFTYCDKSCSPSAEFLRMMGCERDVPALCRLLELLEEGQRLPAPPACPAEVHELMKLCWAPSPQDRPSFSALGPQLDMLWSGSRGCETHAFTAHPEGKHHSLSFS
Procedure: (§1) Compounds were screened for their ability to inhibit JAK3 using a standard radioactive enzyme assay. 1.5 μL/well of a DMSO stock containing serial dilutions of a compound of the present invention (concentrations ranging from 667 μM to 46 nM) was placed in a 96 well polycarbonate plate. 50 μL per well of kinase buffer (100 mM HEPES (pH 7.4), 10 mM MgCl2, 25 mM NaCl, 1 mM DTT, and 0.01% bovine serum albumin (BSA)) containing 2 μM poly(Glu)4Tyr and 10 μM ATP was also added to the plate. To initiate the reaction, 50 μL kinase buffer containing 2 nM JAK3 enzyme was added. Final ATP concentration was 5 μM [γ-^33P] ATP (200 μCi ^33P ATP/μmol ATP (Perkin Elmer, Cambridge, Mass.). After 20 minutes at room temperature (25° C.), the reaction was stopped by adding 50 μL 20% trichloroacetic acid (TCA)/0.4 mM ATP to each well. The entire content of each well was then transferred to a 96 well glass fiber filter plate using a TomTek Cell Harvester. After washing, 60 μL scintillation fluid was added and ^33P incorporation detected using a Perkin Elmer TopCount. After removing mean background values for all of the data points the data was fit using Prism software to obtain a Ki(app). Inhibition of JAK2 was measured as above except that final poly(Glu)4Tyr concentration was 15 μM and final ATP concentration was 12 μM.

[2] = biological target: JAK2 (Homo sapiens, UniProt O60674); test: JAK2 inhibition assay (radioactive enzyme assay, as for JAK3); conditions: average Ki if more than one value determined
JAK2, sequence (O60674 whole entry, species assumed): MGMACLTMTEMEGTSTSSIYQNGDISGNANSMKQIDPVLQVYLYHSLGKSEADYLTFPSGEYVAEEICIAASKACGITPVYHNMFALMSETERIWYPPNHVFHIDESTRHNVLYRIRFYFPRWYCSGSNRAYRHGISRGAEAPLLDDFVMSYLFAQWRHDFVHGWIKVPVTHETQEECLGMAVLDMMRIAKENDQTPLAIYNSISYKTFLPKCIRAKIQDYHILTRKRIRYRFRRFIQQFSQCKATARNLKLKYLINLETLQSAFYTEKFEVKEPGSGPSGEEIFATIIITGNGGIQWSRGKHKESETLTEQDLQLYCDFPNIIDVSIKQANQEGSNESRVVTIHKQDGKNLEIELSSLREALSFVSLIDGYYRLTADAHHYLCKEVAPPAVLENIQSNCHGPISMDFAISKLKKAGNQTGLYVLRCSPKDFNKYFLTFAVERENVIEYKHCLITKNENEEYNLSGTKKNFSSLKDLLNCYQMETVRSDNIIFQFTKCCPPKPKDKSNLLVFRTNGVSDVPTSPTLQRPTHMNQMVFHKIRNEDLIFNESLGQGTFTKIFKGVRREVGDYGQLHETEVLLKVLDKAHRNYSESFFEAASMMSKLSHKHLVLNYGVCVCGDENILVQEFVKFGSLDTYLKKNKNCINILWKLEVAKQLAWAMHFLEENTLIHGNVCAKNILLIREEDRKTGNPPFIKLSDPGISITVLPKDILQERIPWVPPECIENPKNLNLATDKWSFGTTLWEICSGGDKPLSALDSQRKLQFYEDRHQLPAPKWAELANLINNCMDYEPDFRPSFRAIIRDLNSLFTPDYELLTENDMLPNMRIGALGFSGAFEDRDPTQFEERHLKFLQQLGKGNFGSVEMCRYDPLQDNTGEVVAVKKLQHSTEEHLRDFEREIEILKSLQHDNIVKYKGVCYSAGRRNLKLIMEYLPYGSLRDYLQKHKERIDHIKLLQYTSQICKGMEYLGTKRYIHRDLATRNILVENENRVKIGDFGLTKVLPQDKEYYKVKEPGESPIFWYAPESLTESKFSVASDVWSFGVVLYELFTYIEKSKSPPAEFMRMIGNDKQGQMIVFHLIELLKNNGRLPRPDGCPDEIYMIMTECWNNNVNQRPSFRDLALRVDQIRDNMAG
Procedure: as §1

[3] = biological target: T2, ROCK I (AA 6-553) (Homo sapiens, UniProt Q13464); test: ROCK inhibition assay, standard coupled enzyme system ("Enzyme"); conditions: enzyme-linked assay
T2 construct: ROCK I (AA 6-553)
T2 sequence (Q13464 6-553, species assumed): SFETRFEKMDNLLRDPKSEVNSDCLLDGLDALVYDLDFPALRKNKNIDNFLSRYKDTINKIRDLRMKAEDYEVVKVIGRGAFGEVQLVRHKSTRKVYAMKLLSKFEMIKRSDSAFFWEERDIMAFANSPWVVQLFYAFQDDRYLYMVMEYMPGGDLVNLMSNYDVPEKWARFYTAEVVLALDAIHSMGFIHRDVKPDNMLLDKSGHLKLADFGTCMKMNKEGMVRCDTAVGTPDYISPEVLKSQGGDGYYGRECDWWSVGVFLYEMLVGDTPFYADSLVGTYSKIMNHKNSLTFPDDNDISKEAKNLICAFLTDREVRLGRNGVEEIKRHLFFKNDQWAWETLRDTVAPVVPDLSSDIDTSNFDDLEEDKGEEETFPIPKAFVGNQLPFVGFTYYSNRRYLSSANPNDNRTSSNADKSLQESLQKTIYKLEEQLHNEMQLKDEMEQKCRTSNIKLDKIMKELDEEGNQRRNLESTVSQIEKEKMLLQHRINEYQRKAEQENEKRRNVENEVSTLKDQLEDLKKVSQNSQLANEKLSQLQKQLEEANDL
How it was run: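 ROCK I (AA 6-553) at 45 nM and 30 °C with 45 μM ATP and 200 μM peptide, in 100 mM HEPES pH 7.5, 10 mM MgCl2, 25 mM NaCl, 2 mM DTT, 1.5% DMSO. ADP output read by a PK/LDH coupled system: 2.5 mM PEP, 350 μM NADH, 30 μg/ml PK, 10 μg/ml LDH.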

Row | Structure (SMILES) | Ki [1] [nM] | Ki [2] [nM] | Ki [3] [nM]
1 | CC(=O)N1CCCN(c2cccc(-c3c[nH]c4ncc(C)cc34)n2)CC1 [Compound 40] | < 500 | < 500 | 500 to 5000
2 | CC(=O)N1[C@H](C)CN(c2cccc(-c3c[nH]c4ncc(C(=O)N5CCOCC5)cc34)n2)C[C@@H]1C [Compound 51] | 500 to 5000 | 500 to 5000 | 500 to 5000
3 | CC(=O)N1[C@H](C)CN(c2cccc(-c3c[nH]c4ncc(C(=O)N5CCCCCC5)cc34)n2)C[C@@H]1C [Compound 55] | 500 to 5000 | 500 to 5000 | –
4 | CC(=O)N1[C@H](C)CN(c2cccc(-c3c[nH]c4ncc(NC(=O)Oc5ccc(C)cc5)cc34)n2)C[C@@H]1C [Compound 61] | < 500 | < 500 | 500 to 5000
5 | CCCOC(=O)Nc1cnc2[nH]cc(-c3cccc(N4C[C@@H](C)N(C(C)=O)[C@@H](C)C4)n3)c2c1 [Compound 62] | < 500 | < 500 | < 500
6 | CC(=O)N1[C@H](C)CN(c2cccc(-c3c[nH]c4ncc(NC(=O)OCC(C)C)cc34)n2)C[C@@H]1C [Compound 63] | < 500 | < 500 | < 500
7 | CC(=O)N1[C@H](C)CN(c2cccc(-c3c[nH]c4ncc(NC(=O)OCC(C)(C)C)cc34)n2)C[C@@H]1C [Compound 64] | < 500 | < 500 | 500 to 5000
8 | CC(=O)N1[C@H](C)CN(c2cccc(-c3c[nH]c4ncc(NC(=O)OC(C)C)cc34)n2)C[C@@H]1C [Compound 65] | < 500 | < 500 | 500 to 5000
9 | COc1ccc(OC(=O)Nc2cnc3[nH]cc(-c4cccc(N5C[C@@H](C)N(C(C)=O)[C@@H](C)C5)n4)c3c2)cc1 [Compound 71] | < 500 | < 500 | 500 to 5000
10 | CCOC(=O)c1cnc2[nH]cc(-c3cccc(N4C[C@@H](C)N(C(C)=O)[C@@H](C)C4)n3)c2c1 [Compound 73] | < 500 | < 500 | < 500
11 | CC(=O)N1[C@H](C)CN(c2cccc(-c3c[nH]c4ncc(C(=O)OCC(C)C)cc34)n2)C[C@@H]1C [Compound 74] | < 500 | < 500 | < 500
12 | CC(=O)N1[C@H](C)CN(c2cccc(-c3c[nH]c4ncc(NC(=O)c5cccc(Cl)c5)cc34)n2)C[C@@H]1C [Compound 174] | < 500 | < 500 | –
13 | O=C(O)c1ccc(-c2c[nH]c3ncc(Cl)cc23)cc1Cl [Compound 175] | < 500 | < 500 | –
14 | N#Cc1ccc(-c2c[nH]c3ncc(Cl)cc23)cc1 [Compound 176] | < 500 | < 500 | –

Next, values leading:

Row | Ki [1] [nM] | Ki [2] [nM] | Ki [3] [nM] | Structure (SMILES)
15 | < 500 | 500 to 5000 | – | Cc1cccc(-c2c[nH]c3ncc(Cl)cc23)c1 [Compound 185]
16 | < 500 | 500 to 5000 | – | FC(F)(F)c1cc(NCc2ccccc2)cc(-c2c[nH]c3ncc(Cl)cc23)c1 [Compound 187]
17 | 500 to 5000 | > 5000 | – | O=C(O)c1ccc(-c2c[nH]c3ncc(Cl)cc23)c(F)c1 [Compound 188]
18 | < 500 | – | 500 to 5000 | COc1cnc2[nH]cc(-c3ncc(F)c(N[C@@H](C)C(=O)NCC(F)(F)F)n3)c2c1 [Compound 204]
19 | < 500 | – | 500 to 5000 | CCOc1cnc2[nH]cc(-c3cccc(N4C[C@@H](C)N(C(C)=O)[C@@H](C)C4)n3)c2c1 [Compound 205]
20 | < 500 | – | 500 to 5000 | CC(=O)N1[C@H](C)CN(c2cccc(-c3c[nH]c4ncc(OC(C)C)cc34)n2)C[C@@H]1C [Compound 206]
21 | < 500 | – | 500 to 5000 | C=C(C)COc1cnc2[nH]cc(-c3cccc(N4C[C@@H](C)N(C(C)=O)[C@@H](C)C4)n3)c2c1 [Compound 207]
22 | < 500 | – | 500 to 5000 | CC(=O)N1[C@H](C)CN(c2cccc(-c3c[nH]c4ncc(OCCCN5CCOCC5)cc34)n2)C[C@@H]1C [Compound 208]
23 | < 500 | – | 500 to 5000 | CC(=O)N1[C@H](C)CN(c2cccc(-c3c[nH]c4ncc(OCCOC(C)C)cc34)n2)C[C@@H]1C [Compound 209]
